US4126616A, “N-propylnorapomorphine diesters” (Hinshaw; William B., priority 1976, dated 1978)
Counter-ions that a name gives are not always drawn. Like-named read-outs stand apart in the source and are kept apart here.

System: caudate lesioned mouse
Experiment: caudate lesioned mouse test (anti-parkinson activity)
Type: in vivo
Conditions: Mus musculus; for responders at 1.6 µmol/kg: dose 0.0016 m. mole/kg; for responders at 3.2 µmol/kg: dose 0.0032 m. mole/kg; for responders at 6 µmol/kg: dose 0.006 m. mole/kg; for responders at 26 µmol/kg: dose 0.026 m. mole/kg; for responders at 208 µmol/kg: dose 0.208 m. mole/kg; for responders at 416 µmol/kg: dose 0.416 m. mole/kg
Outline: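 Mice with unilateral caudate lesions, recovered ≥14 days, kept only if circling toward lesion in all three periods after apomorphine 1.7 mg/kg i.p. Test drugs given in 1% gum tragacanth; doses as mg/kg free base.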

[1] = 0.5 h, 1/2 h post-drug, read-out: No. Mice Affected/No. Mice Tested, 1/2 h
[2] = 0.5 h, 1/2 h post-drug, read-out: No. Mice Affected/No. Mice Tested, 1/2 h (converted)
[3] = 1 h post-drug, read-out: No. Mice Affected/No. Mice Tested, 1 h
[4] = 6 h post-drug, read-out: No. Mice Affected/No. Mice Tested, 6 h
[5] = 24 h post-drug, read-out: No. Mice Affected/No. Mice Tested, 24 h
[6] = 1 h post-drug, read-out: No. Mice Affected/No. Mice Tested, 1 h (converted)
[7] = 2 h post-drug, read-out: No. Mice Affected/No. Mice Tested, 2 h (converted)
[8] = 4 h post-drug, read-out: No. Mice Affected/No. Mice Tested, 4 h (converted)
[9] = total, read-out: No. Mice Affected/No. Mice Tested, Total (converted)
[10] = 6 h post-drug, read-out: No. Mice Affected/No. Mice Tested, 6 h (converted)

CCCN1CCc2cccc3c2C1Cc1ccc(OC(=O)c2cc(OC)cc(OC)c2)c(OC(=O)c2cc(OC)cc(OC)c2)c1-3 (stereo not shown) [Ex. 1K, N-Propylnorapomorphine bis-3,5-dimethoxybenzoate hydrochloride]
responders at 1.6 µmol/kg [1]: 0% | responders at 3.2 µmol/kg [1]: 0% | responders at 6 µmol/kg [1]: 0% | responders at 26 µmol/kg [2]: 50% | responders at 1.6 µmol/kg [3]: 0% | responders at 1.6 µmol/kg (2 h post-drug, read-out: No. Mice Affected/No. Mice Tested, 2 h): 0% | responders at 1.6 µmol/kg (4 h post-drug, read-out: No. Mice Affected/No. Mice Tested, 4 h): 0% | responders at 1.6 µmol/kg [4]: 0% | responders at 1.6 µmol/kg [5]: 0% | responders at 1.6 µmol/kg (total, read-out: No. Mice Affected/No. Mice Tested, Total): 0% | responders at 3.2 µmol/kg [6]: 25% | responders at 3.2 µmol/kg [7]: 50% | responders at 3.2 µmol/kg [8]: 50% | responders at 3.2 µmol/kg [4]: 0% | responders at 3.2 µmol/kg [5]: 0% | responders at 3.2 µmol/kg [9]: 50% | responders at 6 µmol/kg [3]: 0% | responders at 6 µmol/kg [7]: 75% | responders at 6 µmol/kg [8]: 75% | responders at 6 µmol/kg [10]: 50% | responders at 6 µmol/kg [5]: 0% | responders at 6 µmol/kg [9]: 75% | responders at 26 µmol/kg [6]: 100% | responders at 26 µmol/kg [7]: 50% | responders at 26 µmol/kg [8]: 50% | responders at 26 µmol/kg [10]: 50% | responders at 26 µmol/kg [5]: 0% | responders at 26 µmol/kg [9]: 100%

CCCCC(=O)Oc1ccc2c(c1OC(=O)CCCC)-c1cccc3c1C(C2)N(C)CC3 (stereo not shown) [Ref. 2A, reference compound]
responders at 208 µmol/kg [2]: 0% | responders at 416 µmol/kg [2]: 33.3% | responders at 208 µmol/kg [3]: 0% | responders at 208 µmol/kg [8]: 0% | responders at 208 µmol/kg [10]: 0% | responders at 208 µmol/kg (24 h post-drug, read-out: No. Mice Affected/No. Mice Tested, 24 h (converted)): 0% | responders at 208 µmol/kg [9]: 0% | responders at 416 µmol/kg [6]: 0% | responders at 416 µmol/kg [8]: 0% | responders at 416 µmol/kg [10]: 0% | responders at 416 µmol/kg [5]: 0% | responders at 416 µmol/kg [9]: 33.3%
